Results: patent US9554573B2, “Binary insecticidal or pesticidal mixture” (BAYER CROPSCIENCE AKTIENGESELLSCHAFT, priority 2013, dated 2017)

How the values were obtained:
Spodoptera frugiperda = Spodoptera frugiperda spray test (maize leaf sections); format: in vivo; settings: 144 h, after 6 d, read-out: Efficacy in % after 6 d (mortality)
Experimental: Solvent: 78.0 parts by weight acetone
• 1.5 parts by weight dimethylformamide Emulsifier: 0.5 parts by weight alkylarylpolyglycolether
(§1) To produce a suitable preparation of the active compound, 1 part by weight of active compound is mixed with the stated amount of solvent and emulsifier, and the concentrate is diluted with emulsifier-containing water to the desired concentration. To produce a suitable preparation of a spore suspension the spores are diluted with emulsifier—containing water to the desired concentration.
Maize (Zea mais) leaf sections are sprayed with a preparation of the active ingredient of the desired concentration. Once dry, the leaf sections are infested with fall armyworm larvae (Spodoptera frugiperda).
After the specified period of time, mortality in % is determined. 100% means all caterpillars have been killed and 0% means none of the caterpillars have been killed. The mortality values determined thus are recalculated using the Colby-formula (see sheet 1).

Phaedon cochleariae = Phaedon cochleariae spray test (Chinese cabbage leaf disks); format: in vivo; settings: foliar, 144 h, after 6 d, read-out: Efficacy in % after 6 d (mortality)
Experimental: Solvent: 78.0 parts by weight of acetone
• 1.5 parts by weight of dimethylformamide Emulsifier: 0.5 parts by weight of alkylaryl polyglycolether
as §1, with “of” for “of the”, “emulsifier—containing” for “emulsifier-containing”
Chinese cabbage (Brassica pekinensis) leaf-disks are sprayed with a preparation of the active ingredient of the desired concentration. Once dry, the leaf disks are infested with mustard beetle larvae (Phaedon cochleariae).
After the specified period of time, mortality in % is determined. 100% means all beetle larvae have been killed and 0% means none of the beetle larvae have been killed. The mortality values determined thus are recalculated using the Colby-formula (see sheet 1).

## Cc1cc(C(F)(C(F)(F)F)C(F)(F)F)ccc1NC(=O)c1cccc(Cl)c1C(=O)NC(C)(C)C#N [(I-5)]
Spodoptera frugiperda; 0.25 g ai/ha
  mortality at 0.25 g/ha: 0%
Spodoptera frugiperda; 0.8 g ai/ha
  mortality at 0.8 g/ha: 33%
Spodoptera frugiperda; 3 g ai/ha
  mortality at 3 g/ha: 33%
Phaedon cochleariae; 2.5 g ai/ha
  mortality at 2.5 g/ha: 0%
Phaedon cochleariae; 12 g ai/ha
  mortality at 12 g/ha: 0%
